Assay results as given in PubChem BioAssay (NCI).
Values joined by “and” are separate entries in the source; they are usually repeats but may differ in a detail not shown here. Equal values may be shown once.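 Step 1: Grow cells in 96-well plates. Step 2: Expose to compound for 48 hours at 5 concentrations. Step 3: Interpolate endpoints linearly; if unreached, use highest concentration. GI50 = concentration required for 50% inhibition of growth. TGI: concentration producing complete growth inhibition.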

Columns and labels:
Assay in all cases: NCI anticancer screen, dose series, 48 h
[1] = tested on: 786-0 renal
[2] = tested on: ACHN renal
[3] = tested on: BT-549 breast
[4] = tested on: HOP-62 NSCLC
[5] = tested on: KM12 colon
[6] = tested on: MALME-3M melanoma
[7] = tested on: NCI-H23 lung
[8] = tested on: NCI/ADR-RES ovarian
[9] = tested on: SF-268 CNS
[10] = tested on: EKVX NSCLC

## O=[N+]([O-])c1cccc(C2CC(c3ccccc3)=Nc3ccccc3S2)c1 (stereo unspecified)
[1]
  GI50: 17.3 µM
  TGI: 31.6 µM
[2]
  GI50: 13.9 µM
  TGI: 28.5 µM
[3]
  GI50: 13.2 µM
  TGI: 26.7 µM
[4]
  GI50: 37.8 µM
  TGI: > 100 µM
[5]
  GI50: 6.32 µM
  TGI: 19.3 µM
[6]
  GI50: 17.9 µM
  TGI: 46.1 µM
[7]
  GI50: 17.9 µM
  TGI: 61.8 µM
[8]
  GI50: 22.1 µM
  TGI: > 100 µM
[9]
  GI50: 13.1 µM
  TGI: 26.9 µM

## COC(=O)C=Cc1ccc2nncnc2c1 (mixture of isomers)
[1]
  TGI: > 100 µM
[2]
  TGI: > 100 µM
[3]
  TGI: > 100 µM
[10]
  TGI: > 100 µM
[4]
  TGI: > 100 µM
[5]
  TGI: 99 µM
[8]
  TGI: > 100 µM
[9]
  TGI: > 100 µM

## CC(SC(=O)Nc1ccc(N=Nc2ccccc2)cc1)C(=O)O (stereo unspecified)
[1]
  TGI: > 100 µM
[2]
  TGI: > 100 µM
[10]
  TGI: > 100 µM
[4]
  TGI: > 100 µM
[5]
  TGI: > 100 µM
[7]
  TGI: > 100 µM
[9]
  TGI: 48.9 µM

## COc1ccc(/C(C#N)=C2C=C/C(=N/O)c3ccccc3\2)cc1
[1]
  GI50: 0.457 µM
  TGI: 15 µM
[2]
  GI50: 0.318 µM
  TGI: 15.4 µM
[3]
  GI50: 0.333 µM
  TGI: 8.18 µM
[4]
  GI50: 0.376 µM
  TGI: 16 µM
[5]
  GI50: 0.175 µM
  TGI: 4.82 µM
[7]
  GI50: 0.403 µM
  TGI: 14.4 µM
[8]
  GI50: 0.125 µM
  TGI: 2.94 µM
[9]
  GI50: 0.481 µM
  TGI: 15 µM

## CC(=O)C1=C(O)C2C3c4c[nH]c5cccc(c45)CC3C(C)(C)N2C1=O (stereo unspecified)
[1]
  TGI: > 100 µM
[2]
  TGI: > 100 µM
[10]
  TGI: > 100 µM
[4]
  TGI: 22.4 µM
[5]
  TGI: > 100 µM
[6]
  TGI: > 100 µM
[7]
  TGI: 64.3 µM
[9]
  TGI: > 100 µM

## CCOc1ccc(NC(=O)CC2C(=O)Nc3ccccc3S2(=O)=O)cc1 (stereo unspecified)
[1]
  TGI: > 100 µM
[2]
  TGI: > 100 µM
[10]
  TGI: > 100 µM
[4]
  TGI: > 100 µM
[5]
  TGI: > 100 µM
[6]
  TGI: > 100 µM
[7]
  TGI: > 100 µM
[9]
  TGI: > 100 µM

## COC(=O)[C@H]1CCCN1C(=O)[C@H]1CCCN1C(=O)[C@H](Cc1c[nH]c2ccccc12)NC(=S)Nc1cc(C(F)(F)F)cc(C(F)(F)F)c1
[1]
  GI50: 13.8 µM
  TGI: 83 µM
[2]
  GI50: 4.12 µM
  TGI: > 100 µM
[3]
  GI50: 8.74 µM
  TGI: 46 µM
[4]
  GI50: 8.28 µM
  TGI: > 100 µM
[5]
  GI50: 4.47 µM
  TGI: > 100 µM
[6]
  GI50: 14.9 µM
  TGI: > 100 µM
[7]
  GI50: 7.22 µM
  TGI: > 100 µM
[8]
  GI50: > 100 µM
  TGI: > 100 µM
[9]
  GI50: 8.2 µM
  TGI: > 100 µM

## NC(=O)NC1C(C(N)=O)N(Cc2ccccc2)C(=O)N1Cc1ccccc1 (stereo unspecified)
[1]
  TGI: > 100 µM
[2]
  TGI: > 100 µM
[10]
  TGI: > 100 µM
[4]
  TGI: > 100 µM
[5]
  TGI: > 100 µM
[6]
  TGI: > 100 µM
[7]
  TGI: > 100 µM
[9]
  TGI: > 100 µM

## Cc1ccc(S(=O)(=O)N/N=C(/c2nc3ccc([N+](=O)[O-])cc3[nH]c2=O)C(O)c2ccc(C(O)/C(=N\NS(=O)(=O)c3ccc(C)cc3)c3nc4ccc([N+](=O)[O-])cc4[nH]c3=O)cc2)cc1 (stereo unspecified)
[1]
  TGI: > 100 µM
[2]
  TGI: > 100 µM
[10]
  TGI: > 100 µM
[4]
  TGI: > 100 µM
[5]
  TGI: > 100 µM
[6]
  TGI: > 100 µM
[7]
  TGI: > 100 µM

## Brc1ccc2ns[s+]c2c1
[1]
  TGI: > 100 µM
[2]
  TGI: > 100 µM
[10]
  TGI: > 100 µM
[4]
  TGI: > 31.6 µM
[5]
  TGI: > 100 µM
[6]
  TGI: > 86 µM
[7]
  TGI: > 100 µM
[9]
  TGI: > 100 µM

## CC(=O)NC(CC(C)C)C(=O)NC(Cc1ccccc1)C(=S)N1CCCC1 (stereo unspecified)
[1]
  TGI: > 100 µM
[2]
  TGI: > 100 µM
[10]
  TGI: > 100 µM
[4]
  TGI: > 100 µM
[5]
  TGI: > 100 µM
[6]
  TGI: > 100 µM
[7]
  TGI: > 100 µM
[9]
  TGI: > 100 µM

## CC(C)(C)C(C#N)(C#N)c1ccc(C(C#N)(C#N)C(C)(C)C)nn1
[1]
  TGI: > 100 µM
[2]
  TGI: > 100 µM
[10]
  TGI: > 100 µM
[4]
  TGI: > 100 µM
[5]
  TGI: > 100 µM
[6]
  TGI: > 100 µM
[7]
  TGI: > 100 µM
[9]
  TGI: > 100 µM

## CC1=C(C(=O)Nc2cc(F)c(F)cc2F)C(c2ccc([N+](=O)[O-])cc2)C(C(=O)Nc2cc(F)c(F)cc2F)=C(C)N1
[1]
  TGI: > 100 µM
[2]
  TGI: > 100 µM
[10]
  TGI: > 100 µM
[4]
  TGI: > 100 µM
[5]
  TGI: > 100 µM
[6]
  TGI: > 100 µM
[7]
  TGI: > 100 µM
[9]
  TGI: > 100 µM

## O=C(NNc1ccccc1)/C(=C/c1ccc2c(c1)OCO2)NC(=O)c1ccccc1
[1]
  TGI: > 100 µM
[2]
  TGI: > 100 µM
[10]
  TGI: > 100 µM
[4]
  TGI: > 100 µM
[5]
  TGI: > 100 µM
[6]
  TGI: > 100 µM
[7]
  TGI: > 100 µM
[9]
  TGI: > 100 µM

## CC[C@H](C)[C@H](NC(=O)[C@H]1CCCCN1C)C(=O)N(C)[C@H](C[C@@H](OC(C)=O)c1nc(C(=O)N[C@@H](Cc2ccccc2)C[C@H](C)C(=O)O)cs1)C(C)C
[1]
  GI50: 0.000943 µM and 0.00165 µM
  TGI: > 16.5 µM
[2]
  GI50: 0.00481 µM and 0.00165 µM
  TGI: > 16.5 µM
[3]
  GI50: 0.000676 µM and < 0.00165 µM
[10]
  GI50: 0.000979 µM and 0.00165 µM
  TGI: > 16.5 µM
[4]
  GI50: 0.000909 µM and 0.00165 µM
  TGI: > 16.5 µM
[5]
  GI50: 0.000269 µM and 0.00165 µM
[7]
  GI50: 0.000887 µM and 0.00165 µM
  TGI: > 16.5 µM
[8]
  GI50: 0.00473 µM and 0.00165 µM
[9]
  GI50: 0.000834 µM and 0.00165 µM
  TGI: > 16.5 µM

## CN(C)CCNC(=O)c1cccc2c1Oc1c(cccc1[N+](=O)[O-])O2
[1]
  TGI: 3.98 µM
[3]
  TGI: 4.66 µM
[10]
  TGI: 14.3 µM
[4]
  TGI: 2.48 µM
[5]
  TGI: 3.46 µM
[6]
  TGI: 3.88 µM
[7]
  TGI: 9.58 µM
[9]
  TGI: 12.2 µM

## O=P(O)(O)C1(P(=O)(O)O)CC1
[1]
  TGI: > 100 µM
[2]
  TGI: > 100 µM
[10]
  TGI: > 100 µM
[4]
  TGI: > 100 µM
[5]
  TGI: > 100 µM
[6]
  TGI: > 100 µM
[7]
  TGI: > 100 µM
[9]
  TGI: > 100 µM

## COc1ccc(/C=C/C(=O)c2sc(-n3nc(-c4ccccc4)cc3-c3ccccc3)nc2C)cc1
[1]
  GI50: > 100 µM
  TGI: > 100 µM
[2]
  GI50: > 100 µM
  TGI: > 100 µM
[10]
  GI50: 51.1 µM
  TGI: > 100 µM
[4]
  GI50: > 100 µM
  TGI: > 100 µM
[5]
  TGI: > 100 µM
[6]
  GI50: > 100 µM
  TGI: > 100 µM
[7]
  GI50: > 100 µM
  TGI: > 100 µM
[9]
  GI50: > 100 µM
  TGI: > 100 µM

## CCCCCCC[CH2][Sn]1([CH2]CCCCCCC)[O]C(=O)c2cccnc2[O]1
[1]
  GI50: > 100 µM
  TGI: > 100 µM
[2]
  GI50: > 100 µM
  TGI: > 100 µM
[10]
  GI50: > 100 µM
  TGI: > 100 µM
[5]
  GI50: > 100 µM
  TGI: > 100 µM
[6]
  GI50: > 100 µM
  TGI: > 100 µM
[7]
  GI50: > 100 µM
  TGI: > 100 µM
